Counter-ions that a name gives are not always drawn.
Columns and labels:
K562 tumor cells = assay: KOR assay, optical density versus time of cell cultures (FIG. 13); assay type: cell-based
From the text: Referring again to FIG. 6, and in the preferred embodiment depicted therein, a 96 well microtiter dish 310 is preferably used, and a light source 312 shines light through the samples disposed in such dish. The light source preferably provides light with a wavelength of from 200 about 800 nanometers. In one embodiment, the wavelength provided by the light source is from about 300 to about 700 nanometers. In yet another embodiment, the wavelength provided by the light source is from about 340 to about 660 nanometers.
Referring again to FIG. 6, and in the preferred embodiment depicted therein, the transmittance values measured by sensor 314 may be converted into optical density values in accordance with the formula: Dw=-log10Tw, wherein Tw is the measured transmittance of the sample measured at the specified wavelength (w) of the light used, and Dw is the optical density of the sample at the specified wavelength of the light used.
Thus, applicant's process allows one to measure the true optical density of a sample rather than mere absorbance. Once such optical density has been measured, one can then plot optical density versus time (as illustrated in the Figures of U.S. Pat. No. 6,258,553) and obtain a true rather than a distorted indication of cell apoptosis. […]

[1] = tested on: epithelial carcinoma cells; assay: exposure of cells to radiolabeled lineage specific hormones (FIG. 19); assay type: cell-based
From the text: FIG. 19 is a representation of the results of exposing cells to various lineage specific hormones. […] Reference may be had to U.S. Pat. No. 6,565,827 (radioimmunotherapy of lymphoma using anti-CD20 antibodies), U.S. Pat. No. 6,287,537 (radioimmunotherapy of lymphoma using anti-CD20 antibodies), U.S. Pat. No. 6,015,542 (radioimmunotherapy of lymphoma using anti-CD20 antibodies), and U.S. Pat. No. 5,843,398 (radioimmunotherapy of lymphoma using anti-CD 20 antibodies). The entire disclosure of these United States patents are hereby incorporated by reference into this specification. […] In another embodiment (see graph 1300) epithelial cells, 1310, and ovarian cancer cells, 1320, are exposed to radiolabeled estrogen. Over 90 percent of the ovarian cancer cells are killed upon exposure to the radiolabeled estrogen but less than 30 percent of the epithelial carcinoma cells are killed upon exposure.

| Compound | slope of optical density versus time relative to control slope (K562 tumor cells; K562 tumor cells derived from a patient with chronic myelogenous leukemia) | apoptosis peak in the KOR assay (K562 tumor cells; optical density versus time) | epithelial carcinoma cells killed upon exposure [1] |
| --- | --- | --- | --- |
| Cc1ccc(NC(=O)c2ccc(CN3CCN(C)CC3)cc2)cc1Nc1nccc(-c2cccnc2)n1 [imatinib mesylate] | dose-dependent decrease in slope | do not produce | – |
| radiolabeled epithelial growth factor: radiolabeled ligand used to kill cells that possess receptors for the particular ligand (NSDSECPLSHDGYCLHDGVCMYIEALDKYACNCVVGYIGERCQYRDLKWWELR; Epidermal growth factor radiolabel; UniProt P01133 971-1023, looked up) | – | – | more than 50% |
